Patent publication US8981106B2, “Pyrimidinecarboxamides as CXCR2 modulators” (Syntrix Biosystems, Inc., priority 2009, dated 2015)

target: CXCR2 (Homo sapiens (Human), UniProt P25025); experiment: Inhibition of GROα-mediated intracellular calcium release in human neutrophils (FLIPR-3 Ca2+ mobilization); type: cell-based; details: human neutrophils, 25 nM GROα; read-out: IC50
Experimental: In Tables 1-5, the IC50 or EC50 values were determined using the following assay. This assay measures intracellular calcium release via fluorescence as an indication of CXCR2 receptor activation by the physiologic agonist GROα. The assay is a Ca^2+ mobilization assay that measures changes in intracellular Ca^2+ with a FlexStation II scanning fluorometer using a FLIPR-3 Calcium Assay Kit (Molecular Devices, Sunnyvale, Calif.). The procedure is as follows:
1. Human neutrophils were suspended in HBSS^− (without Ca^2+ and Mg^2+) containing 10 mM HEPES and FLIPR Calcium 3 dye (3.1×10^7 cells in total volume 1.7 mL).
2. […] As controls, 2 μL of DMSO (1% final concentration) were added to other 2 tubes.
3. Cells were incubated for 30 min at 37° C.
4. After dye loading, tubes were centrifuged at 6,000 rpm for 1 min, supernatant was removed and cell pellet was re-suspended in 200 μL of HBSS^+ (with Ca^2+ and Mg^2+) containing 10 mM HEPES.
5. The compound or DMSO (control) was added again at the same concentrations that were used during cell loading.
6. The cell suspension was aliquoted into a 96-well Reading Plate (Corning) in a volume of 90 μL (10^5 cells/well). The Compound Plate contained physiologic agonist (GROα in HBSS^−) or HBSS^− (control).
9. The maximum change in fluorescence, expressed in arbitrary units over baseline (Max-Min) was used to determine the GROα response. […] Therapeutic Activity
Briefly, human neutrophils were suspended in HBSS^− (without Ca^2+ and Mg^2+) containing 10 mM HEPES and FLIPR Calcium 3 dye (3.1×10^7 cells in total volume 1.7 mL). […] As controls, 2 μL of DMSO (1% final concentration) were added to 2 other tubes. Cells were incubated for 30 min at 37° C. After dye loading, tubes were centrifuged at 6,000 rpm for 1 min, supernatant was removed and the cell pellet was re-suspended in 200 μL of HBSS^+ (with Ca^2+ and Mg^2+) containing 10 mM HEPES. The test compound or DMSO (control) was added again at the same concentrations that were used during cell loading. The cell suspension was aliquoted into a 96-well Reading Plate (Corning) in a volume of 90 μL (10^5 cells/well). The Compound Plate contained agonist (GROα in HBSS^−) or HBSS^− (control).
The maximum change in fluorescence, expressed in arbitrary units over baseline (Max-Min), was used to determine the GROα response.

Sequence of CXCR2 (P25025 whole entry): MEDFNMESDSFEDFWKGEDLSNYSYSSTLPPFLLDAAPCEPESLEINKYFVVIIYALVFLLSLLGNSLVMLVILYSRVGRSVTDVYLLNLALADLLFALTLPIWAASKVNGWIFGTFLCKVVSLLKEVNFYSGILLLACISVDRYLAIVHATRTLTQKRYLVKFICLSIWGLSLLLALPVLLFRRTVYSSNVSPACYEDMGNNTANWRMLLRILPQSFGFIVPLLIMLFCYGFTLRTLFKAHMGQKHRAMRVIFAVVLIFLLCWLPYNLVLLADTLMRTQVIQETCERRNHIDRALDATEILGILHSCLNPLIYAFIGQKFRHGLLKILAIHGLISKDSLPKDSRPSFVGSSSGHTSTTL

| Compound | IC50 [µM] |
| --- | --- |
| O=C(Nc1ccc(F)cc1)c1ccc(SCc2ccc(-n3cccn3)cc2)nc1 [Compound 32] | > 10 |
| COC(=O)c1ccc(CSc2ccc(C(=O)Nc3ccc(F)cc3)cn2)cc1 [Compound 23] | > 10 |
| Cc1cc(CSc2ccc(C(=O)Nc3ccc(F)cc3)cn2)no1 [Compound 44] | > 5 |
| O=C(Nc1ccc(F)cc1)c1ccc(SCc2cccc3nsnc23)nc1 [Compound 64] | > 5 |
| O=C(Nc1ccc(F)cc1)c1ccc(SCC2CCCCO2)nc1 (stereo not drawn) [Compound 78] | > 5 |
| O=C(Nc1ccc(F)cc1)c1ccc(SCc2cccc3c2OCCCO3)nc1 [Compound 50] | 0.35 |
| O=C(Nc1ccc(F)cc1)c1ccc(SCC(=O)c2cc(C(=O)O)no2)nc1 [Compound 138] | 0.081 ± 0.01 |
| CC1(C)OB(c2ccc(OC(F)(F)F)cc2CSc2ccc(C(=O)Nc3ccc(F)cc3)cn2)OC1(C)C [Compound 19, 6-(2-boronic pinacol ester-5-trifluoromethoxy-benzylsulfanyl)-N-(4-fluoro-phenyl)-nicotinamide] | 0.072 ± 0.007 |
| O=C(Nc1ccc(F)cc1)c1ccc(SCC(=O)c2cc(Br)cc3c2OCC3)nc1 [Compound 152] | 0.529 ± 0.44 |
| O=C(Nc1ccc(F)cc1)c1ccc(SCc2ccc(OC(F)(F)F)cc2)nc1 [Compound 41] | > 10 |
| CC1(C)OB(c2ccc(F)cc2CSc2ccc(C(=O)Nc3ccc(F)cc3)cn2)OC1(C)C [Compound 18] | 1.23 ± 0.12 |
| O=C(Nc1ccc(F)cc1)c1ccc(SCc2ccccc2-c2cccs2)nc1 [Compound 30] | > 5 |
| O=C(Nc1ccc(F)cc1)c1ccc(SCc2ccc(-n3cncn3)cc2)nc1 [Compound 33] | > 10 |
| O=C(CSc1ccc(C(=O)Nc2ccc(F)cc2)cn1)c1ccc2occc2c1 [Compound 117] | > 5 |
| O=C(Nc1ccc(F)cc1)c1ccc(SCc2nc3ccccc3s2)nc1 [Compound 68] | > 10 |
| O=C(Nc1ccc(F)cc1)c1ccc(SCc2cccc3nonc23)nc1 [Compound 66] | > 5 |
| O=C(Nc1ccc(F)cc1)c1ccc(SCCOc2ccccc2)nc1 [Compound 72] | > 10 |
| O=C(Nc1ccc(F)cc1)c1ccc(SCc2ccccc2C(=O)O)nc1 [Compound 24] | 1.48 ± 0.49 |
| O=C(Nc1ccc(F)cc1)c1ccc(SCc2ccc([N+](=O)[O-])o2)nc1 [Compound 75] | > 5 |
| CN(C(=O)c1ccc(SCc2ccccc2B(O)O)nc1)c1ccc(F)cc1 [Compound 154] | > 5 |
| O=C(Nc1ccc(F)cc1)c1ccc(SCC(=O)c2cc3ccc(Br)cc3o2)nc1 [Compound 119] | 0.981 ± 0.29 |
| Cc1nc(-c2ccc(C(F)(F)F)cc2)sc1CSc1ccc(C(=O)Nc2ccc(F)cc2)cn1 [Compound 71] | > 10 |
| O=C(Nc1ccc(F)cc1)c1ccc(SCS(=O)(=O)c2ccccc2)nc1 [Compound 83] | > 5 |
| Cc1cccc(CSc2ccc(C(=O)Nc3ccc(F)cc3)cn2)c1F [Compound 28] | > 10 |
| Cc1nc(-c2cccc(CSc3ccc(C(=O)Nc4ccc(F)cc4)cn3)c2)cs1 [Compound 37] | > 5 |
| CC1(C)OB(c2ccc(CSc3ccc(C(=O)Nc4ccc(F)cc4)cn3)cc2)OC1(C)C [Compound 20] | 0.112 ± 0.067 |

The next lines start with the values.

| IC50 [µM] | Compound |
| --- | --- |
| 0.294 ± 0.119 | O=C(Nc1ccc(F)cn1)c1ccc(SCc2ccccc2B(O)O)nc1 [Compound 164] |
| > 5 | Cc1cc(C(=O)CSc2ccc(C(=O)Nc3ccc(F)cc3)cn2)ccc1Cl [Compound 92] |
| 1.06 ± 0.27 | CC(=O)Oc1ccc(OC(F)(F)F)cc1CSc1ccc(C(=O)Nc2ccc(F)cc2)cn1 [Compound 14a] |
| > 5 | O=C(CSc1ccc(C(=O)Nc2ccc(F)cc2)cn1)c1cccnc1 [Compound 114] |
| > 5 | O=C(Nc1ccc(F)cc1)c1ccc(SCc2cc([N+](=O)[O-])ccc2O)nc1 [Compound 40] |
| > 5 | O=C(CSc1ccc(C(=O)Nc2ccc(F)cc2)cn1)c1ccc(F)c(F)c1 [Compound 95] |
| > 5 | O=C(Nc1ccc(F)cc1)c1ccc(SCc2ccc3nc(C(F)(F)F)cc(Cl)c3c2)nc1 [Compound 56] |
| > 5 | Cc1onc(-c2ccccc2)c1C(=O)CSc1ccc(C(=O)Nc2ccc(F)cc2)cn1 [Compound 131] |
| > 5 | O=C(Nc1ccc(F)cc1)c1ccc(SCC(=O)c2cccs2)nc1 [Compound 122] |
| > 10 | O=C(Nc1ccc(F)cc1)c1ccc(SCC(=O)c2cccc3c2OCCCO3)nc1 [Compound 143] |
| > 10 | Cc1c(C(=O)CSc2ccc(C(=O)Nc3ccc(F)cc3)cn2)sc2ccccc12 [Compound 129] |
| > 10 | O=C(Nc1ccc(F)cc1)c1ccc(SCC(=O)c2ccccn2)nc1 [Compound 113] |
| 3.69 ± 0.72 | CCc1cc2c(cc1C(=O)CSc1ccc(C(=O)Nc3ccc(F)cc3)cn1)C(C)(C)CCC2(C)C [Compound 112] |
| > 5 | CC(=O)Oc1ccccc1CSc1ccc(C(=O)Nc2ccc(F)cc2)cn1 [Compound 13a] |
| > 10 | CCCCCc1ccc(C(=O)CSc2ccc(C(=O)Nc3ccc(F)cc3)cn2)cc1 [Compound 97] |
| 1.15 ± 0.47 | O=C(CSc1ccc(C(=O)Nc2ccc(F)cc2)cn1)c1ccc(-c2nn[nH]n2)cc1 [Compound 104] |

| IC50 [µM] | Compound |
| --- | --- |
| > 10 | O=C(Nc1ccc(F)cc1)c1ccc(SCC(=O)c2coc3ccccc23)nc1 [Compound 118] |
| > 10 | O=C(CSc1ccc(C(=O)Nc2ccc(F)cc2)cn1)c1ccncc1 [Compound 115] |
| > 10 | N#Cc1ccc(C(=O)CSc2ccc(C(=O)Nc3ccc(F)cc3)cn2)cc1 [Compound 102] |
| > 5 | O=C(Nc1ccc(F)cc1)c1ccc(SCc2cccc3cccnc23)nc1 [Compound 53] |
| > 10 | O=C(CSc1ccc(C(=O)Nc2ccc(F)cc2)cn1)c1cc(C(F)(F)F)cc(C(F)(F)F)c1 [Compound 110] |
| > 10 | O=C(Nc1ccc(F)cc1)c1ccc(SCc2cc3c(cc2B(O)O)OCO3)nc1 [Compound 6] |
| 1.21 ± 0.39 | Cc1nc(-c2ccccc2)sc1CSc1ccc(C(=O)Nc2ccc(F)cc2)cn1 [Compound 70] |
| > 10 | Cc1ccc2sc(C(=O)CSc3ccc(C(=O)Nc4ccc(F)cc4)cn3)c(C)c2c1 [Compound 130] |
| > 5 | CC1(C)CCC(C)(C)c2cc(C(=O)CSc3ccc(C(=O)Nc4ccc(F)cc4)cn3)ccc21 [Compound 111] |
| > 10 | O=C(Nc1ccc(F)cc1)c1ccc(SCCCCCCN2C(=O)c3ccc([N+](=O)[O-])cc3C2=O)nc1 [Compound 60] |
| 0.173 ± 0.046 | O=C(Nc1ccc(F)cc1)c1ccc(SCc2ccccc2-c2nn[nH]n2)nc1 [Compound 26] |
| > 5 | Cc1ccc(C(=O)CSc2ccc(C(=O)Nc3ccc(F)cc3)cn2)c(C)c1 [Compound 87] |
| > 10 | O=C(Nc1ccc(F)cc1)c1ccc(SCC2CCOCC2)nc1 [Compound 77] |
| 0.278 ± 0.148 | O=C(Nc1ccc(OC(F)(F)F)cc1)c1ccc(SCc2ccccc2B(O)O)nc1 [Compound 159] |
| > 10 | Cc1nc(-c2cnccn2)sc1C(=O)CSc1ccc(C(=O)Nc2ccc(F)cc2)cn1 [Compound 149] |
| > 5 | Cc1nc(-c2ccc(Cl)cc2)sc1C(=O)CSc1ccc(C(=O)Nc2ccc(F)cc2)cn1 [Compound 147] |

same assay, conditions: read-out: IC50

| Compound | IC50 [µM] |
| --- | --- |
| O=C(CSc1ccc(C(=O)Nc2ccc(F)cc2)cn1)c1ccc(Cl)c(Cl)c1 [Compound 93] | 1.85 ± 0.55 |
| O=C(O)c1ccc(NC(=O)c2ccc(SCc3ccccc3B(O)O)nc2)cc1 [Compound 160] | > 10 |
